In patent publication US8691799B2, “Materials and methods for treatment of cancer and identification of anti-cancer compounds” (priority 2001, dated 2014):

Key:
JAK2 [1] = target: T1, JAK2 (Homo sapiens, UniProt O60674); experiment: JAK kinase autophosphorylation assay on immunoprecipitates (JAK2); type: biochemical; conditions: immunoprecipitates from A549, MDA-MB-468 or v-Src/NIH 3T3 cells; AG490 100 μM, PD180970 2 μM
T1 construct: Src, JAK1, and JAK2 were immunoprecipitated from either A549, MDA-MB-468, or v-Src/NIH 3T3 cells; endogenous in cells; host or cells: A549, MDA-MB-468, v-Src transformed NIH 3T3 (immunoprecipitates)
T1 sequence (O60674 whole entry): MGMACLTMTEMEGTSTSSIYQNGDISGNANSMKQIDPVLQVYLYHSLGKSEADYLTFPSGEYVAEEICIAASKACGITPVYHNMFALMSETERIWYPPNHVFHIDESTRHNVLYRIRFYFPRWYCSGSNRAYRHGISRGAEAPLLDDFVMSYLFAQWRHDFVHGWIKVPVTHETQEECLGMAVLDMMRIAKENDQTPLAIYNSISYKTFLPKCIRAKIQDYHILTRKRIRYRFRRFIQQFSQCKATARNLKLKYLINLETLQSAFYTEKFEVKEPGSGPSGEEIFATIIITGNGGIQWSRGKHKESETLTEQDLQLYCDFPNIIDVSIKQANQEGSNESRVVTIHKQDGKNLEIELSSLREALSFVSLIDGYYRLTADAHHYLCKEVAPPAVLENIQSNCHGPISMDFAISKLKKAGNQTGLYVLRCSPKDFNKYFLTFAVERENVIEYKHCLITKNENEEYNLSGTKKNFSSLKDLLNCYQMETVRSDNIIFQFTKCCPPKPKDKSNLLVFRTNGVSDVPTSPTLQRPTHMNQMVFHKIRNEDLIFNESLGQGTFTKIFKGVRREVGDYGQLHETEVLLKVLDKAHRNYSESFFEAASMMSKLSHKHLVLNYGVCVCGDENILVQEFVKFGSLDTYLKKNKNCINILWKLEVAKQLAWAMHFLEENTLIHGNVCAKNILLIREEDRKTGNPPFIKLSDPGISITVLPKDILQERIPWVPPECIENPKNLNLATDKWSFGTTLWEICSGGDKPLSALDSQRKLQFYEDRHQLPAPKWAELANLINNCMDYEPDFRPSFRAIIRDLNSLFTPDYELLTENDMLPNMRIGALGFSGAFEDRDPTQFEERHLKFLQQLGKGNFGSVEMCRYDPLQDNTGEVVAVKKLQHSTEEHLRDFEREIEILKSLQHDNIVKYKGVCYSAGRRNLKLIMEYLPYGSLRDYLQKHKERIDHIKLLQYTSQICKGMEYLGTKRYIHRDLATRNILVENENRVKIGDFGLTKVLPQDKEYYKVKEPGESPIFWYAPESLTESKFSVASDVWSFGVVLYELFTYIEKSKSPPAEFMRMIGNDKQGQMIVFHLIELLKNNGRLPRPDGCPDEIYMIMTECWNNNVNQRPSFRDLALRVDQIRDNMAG
Method: JAK Kinase Assays. A549, MDA-MB-468, and v-Src transformed NIH 3T3 cells were harvested, washed three times in PBS-V (10 mM sodium phosphate, pH 7.4, 137 mM NaCl, 1 mM sodium orthovanadate) then lysed for 30 min on ice in JAK kinase lysis buffer (25 mM Hepes, pH 7.4, 0.1% Triton-X-100, 0.5 mM DTT, 1 mM sodium orthovanadate, 1 mM PMSF, 10 μg/ml aprotinin, 10 μg/ml leupeptin). Samples were spun at high speed to clear, and 800-1000 μg of protein was immunoprecipitated per treatment condition with 50 ng of either JAK1 or JAK2 antibody (Santa Cruz Biotechnology) rocking overnight at 4° C. 25 μl of protein A/G PLUS agarose then was added and rocking continued for 1 hr at 4° C. Samples were spun to collect agarose pellet, and pellet washed twice in wash buffer (50 mM Hepes, pH 7.4, 0.1% Triton-X-100, 0.5 mM DTT, 150 mM NaCl) and once in phosphorylation buffer (50 mM Hepes, pH 7.4, 0.1% Triton-X-100, 0.5 mM DTI, 6.25 mM manganese chloride, 100 mM NaCl). Kinase reactions were performed at 30° C. for 15 min in a final volume of 100 μl of phosphorylation buffer. Samples were pretreated with DMSO control, JSI-124, and control compounds (AG490, 100 μM, and […], 2 μM) before addition of 20 μCi/sample y-[^32P]ATP. Reaction was halted using stop buffer (wash buffer plus 10 mM EDTA), samples spun to collect pellet, then pellet washed once with stop buffer and twice with wash buffer. Samples were then placed in 2×SDS-PAGE sample buffer, boiled at 100° C., and run on 8% SDS-PAGE gels to separate proteins. Autophosphorylation results were visualized by autoradiography.

phospho-JNK = experiment: Western blotting for phospho-JNK; type: cell-based, human; conditions: A549 and MDA-MB-468 cells, up to 10 μM
Method: (§1) Western Blotting. Treated cell samples were lysed in 30 mM Hepes, pH 7.5, 10 mM NaCl, 5 mM MgCl2, 25 mM NaF, 1 mM EGTA, 1% Triton-X-100, 10% glycerol, 2 mM sodium orthovanadate, 10 μg/ml aprotinin, 10 μg/ml soybean trypsin inhibitor, 25 μg/ml leupeptin, 2 mM PMSF, and 6.4 mg/ml p-nitrophenylphosphate. Phospho-STAT3, phospho-AKT, phospho-MEK, and phospho-p42/p44 MAPK antibodies were obtained from Cell Signaling Technologies, Cambridge, Mass. Antibodies to STAT3, JAK2, and phospho-INK were purchased from Santa Cruz Biotechnology, Santa Cruz, Calif. Phospho-JAK2 antibody came from Upstate Biotechnology, Lake Placid, N.Y. Membranes were blocked in either 5% milk in PBS, pH 7.4, containing 0.1% Tween-20 (PBS-T) or 1% BSA in TBS, pH 7.5, containing 0.1% Tween-20 (TBS-T). Phospho-specific antibodies (excepting P-MAPK and P-JNK) were incubated in 1% BSA in TBS-T while all other antibodies were diluted in 5% milk in PBS-T for either 2 hr at room temperature or overnight at 4° C. HRP-conjugated secondary antibodies (Jackson ImmunoResearch) were diluted in 5% milk in either PBS-T or TBS-T at 1:1000 dilution for one hour at room temperature. Western blots were visualized using enhanced chemiluminescence as described previously (Blaskovich, M. A. et al. Nat. Biotechnol., 2000, 18:1065-1070).

JAK2 [2] = experiment: Western blotting for JAK2 protein levels; type: cell-based, human; conditions: A549 and MDA-MB-468 cells
Method: as §1

B16-F10 tumors = experiment: Antitumor activity, B16-F10 melanoma in C57 black mice; type: in vivo; conditions: 1 mg/Kg/day
From the text: Antitumor Activity in the Nude Mouse Tumor Xenograft Model. Nude mice and C57 BL-6 black mice (National Cancer Institute, Bethesda, Md.) were maintained in accordance with the Institutional Animal Care and Use Committee (IACUC) procedures and guidelines. v-Src- and oncogenic H-Ras-transformed NIH 3T3, A549, MDA-MB-468 and Calu-1 cells were harvested, resuspended in PBS and injected s.c. into the right and left flank (10×10^6 cells per flank) of 8 week old female nude mice as reported previously (Sun, J. et al. Cancer Res., 1999, 59:4919-4926). Similarly, murine B16-F10 Melanoma cells were injected s.c. into the right and left flank (10^6 cells per flank) of C57 black mice. When tumors reached about 150 mm^3, animals were randomized (five animals per group; two tumors per animal) and dosed i.p. with 0.2 ml once daily. Control animals received DMSO (20%) vehicle whereas treated animals were injected with JSI-124 (1 mg/kg/day) in 20% DMSO in water. The tumor volumes were determined by measuring the length (l) and the width (w) and calculating the volume (V=1w^2/2) as described previously (Sun, J. et al. Cancer Res., 1999, 59:4919-4926). Statistical significance between control and treated animals were evaluated by using Student's t-test. […] Percent surviving mice was determined by monitoring the death of mice until all mice died. […]

EGFR = target: T2, EGFR (Homo sapiens, UniProt P00533); experiment: EGF-stimulation of EGFR tyrosine phosphorylation; type: cell-based; conditions: MCF-10A and EGFR-overexpressing NIH 3T3 cells (data not shown)
T2 construct: EGFR tyrosine phosphorylation in the breast cell line MCF-10A; endogenous in cells; host or cells: MCF-10A; also EGFR-overexpressing NIH 3T3
T2 sequence (P00533 25-1210): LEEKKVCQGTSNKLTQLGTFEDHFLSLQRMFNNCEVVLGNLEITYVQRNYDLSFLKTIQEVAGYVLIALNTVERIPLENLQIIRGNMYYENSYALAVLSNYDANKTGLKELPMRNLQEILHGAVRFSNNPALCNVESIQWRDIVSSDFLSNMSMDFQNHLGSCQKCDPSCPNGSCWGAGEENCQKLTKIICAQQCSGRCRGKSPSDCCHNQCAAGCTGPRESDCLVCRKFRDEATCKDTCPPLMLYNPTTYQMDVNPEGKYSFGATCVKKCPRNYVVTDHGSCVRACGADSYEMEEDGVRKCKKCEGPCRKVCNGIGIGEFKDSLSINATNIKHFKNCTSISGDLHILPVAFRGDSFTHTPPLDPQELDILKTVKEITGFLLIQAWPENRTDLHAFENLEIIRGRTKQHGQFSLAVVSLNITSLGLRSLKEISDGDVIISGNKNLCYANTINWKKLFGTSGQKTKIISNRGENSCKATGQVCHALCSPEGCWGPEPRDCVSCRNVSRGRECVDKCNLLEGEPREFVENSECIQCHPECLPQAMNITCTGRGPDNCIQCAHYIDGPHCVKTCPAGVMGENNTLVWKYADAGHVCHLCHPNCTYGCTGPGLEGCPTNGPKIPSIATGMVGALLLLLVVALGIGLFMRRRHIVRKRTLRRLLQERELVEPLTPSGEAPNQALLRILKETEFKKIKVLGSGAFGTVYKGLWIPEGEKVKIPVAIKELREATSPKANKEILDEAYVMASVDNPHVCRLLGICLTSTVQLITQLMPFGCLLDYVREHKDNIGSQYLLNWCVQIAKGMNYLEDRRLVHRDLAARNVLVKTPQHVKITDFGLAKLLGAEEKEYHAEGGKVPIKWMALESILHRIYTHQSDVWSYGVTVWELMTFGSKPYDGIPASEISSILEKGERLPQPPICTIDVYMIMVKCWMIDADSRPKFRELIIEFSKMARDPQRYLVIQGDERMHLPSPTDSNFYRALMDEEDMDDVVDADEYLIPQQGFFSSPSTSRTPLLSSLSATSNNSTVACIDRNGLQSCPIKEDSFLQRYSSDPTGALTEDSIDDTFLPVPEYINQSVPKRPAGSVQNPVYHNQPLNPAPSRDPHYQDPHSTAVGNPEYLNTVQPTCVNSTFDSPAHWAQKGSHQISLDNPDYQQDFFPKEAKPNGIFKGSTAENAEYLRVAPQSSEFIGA

Compound: CC(C)(O)/C=C/C(=O)[C@](C)(O)[C@H]1[C@H](O)C[C@@]2(C)[C@@H]3CC=C4[C@@H](C=C(O)C(=O)C4(C)C)[C@]3(C)C(=O)C[C@]12C [JSI-124, cucurbitacin I]
- JAK2 kinase activity (autophosphorylation) in vitro (JAK2 [1]): not affected
- phospho-JNK levels (phospho-JNK): no inhibitory effect
- JAK2 protein levels (JAK2 [2]): no effect on the protein levels of STAT3 and JAK2
- average size of B16-F10 tumors (B16-F10 tumors): 588±94
- inhibition of B16-F10 tumor growth (B16-F10 tumors): 56%
- EGF-stimulated EGFR tyrosine phosphorylation (EGFR): inhibited only minimally
